As a reminder, the GI50 is the concentration giving 50% growth inhibition. One may read the TGI as the concentration giving total growth inhibition. Lower therefore signals more potent growth arrest.

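Results reflect a 48-hour exposure of cells in 96-well plates to compound at five concentrations. GI50: concentration for 50% inhibition of growth. The concentration for full growth arrest is given as TGI.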 Bounds are passed on as bounds.

Experiment in all cases: DTP human tumour cell line panel, 48 h
Experiment [1] deals with NCI-H460 lung.
For experiment [2], the system named is SNB-19 CNS.
The test system of experiment [3] is HL-60(TB) leukemia.
In experiment [4] the test system is M14 melanoma.
The test system of experiment [5] is SNB-75 CNS.
In experiment [6] the test system is HOP-92 NSCLC.
Experiment [7] has as its system CAKI-1 renal.
Experiment [8] has as its system ACHN renal.
Experiment [9] deals with MDA-MB-435.
In experiment [10] the test system is RPMI-8226 leukemia.

Consider `OCC1OC(n2cnc3c(NCc4ccco4)ncnc32)C(O)C1O` (stereo not given), for which the GI50 in experiment [1] was 2.79 µM; in [2], 3.99 µM; in [3] it was 0.724 µM; in experiment [4] it was 2.44 µM; in experiment [5], 1.73 µM; in [6], 0.442 µM. The GI50 in experiment [7] is 0.369 µM; in [8], 0.542 µM; in experiment [9], 2.08 µM; in [10], 3 µM. In addition, the TGI in experiment [1] is 32.8 µM; in experiment [2], > 100 µM; in experiment [3], 3.48 µM; in experiment [4], 17.2 µM; in [5], > 28.1 µM; in [6], 5.1 µM. Moreover, the TGI was 4.33 µM in experiment [7], > 100 µM in experiment [8], 15.1 µM in experiment [9] and 21.3 µM in [10].

In the case of `O=c1[nH]c2ccccc2n1C1CCN(CCOc2ccccc2)CC1`, the GI50 in experiment [1] was 18.7 µM; in experiment [2], 47.8 µM; in experiment [3], 12.9 µM; in experiment [4] it was 25.4 µM; in experiment [5], 23.7 µM; in experiment [6], 22.9 µM. Moreover, the GI50 in experiment [7] was 14.9 µM; in experiment [8], 40.4 µM; in [9], 6.75 µM; in experiment [10], 9.28 µM. For the same compound, the TGI in experiment [1], in experiment [2], in experiment [3], in experiment [4], in [5] and in experiment [6] was > 100 µM throughout. The TGI was 52.7 µM in [7], > 100 µM in [8], 72.3 µM in experiment [9] and > 100 µM in experiment [10].

For the origin of these results see PubChem BioAssay (NCI).
